Source: patent US10945771B2, “Azabicyclo[4.1.0]heptane allosteric modulators of the M4 muscarinic acetylcholine receptor” (Merck Sharp & Dohme Corp., priority 2017, dated 2021)

target: T1, human M4 muscarinic acetylcholine receptor (Homo sapiens, UniProt P08173); assay: human FLIPR-based M4 PAM assay (Ca2+ dye fluorescence, CHO-K1 cells with human M4 receptor and Gαqi5); assay type: cell-based; details: inflection point (IP) of dose response curve, FLIPR Tetra, acetylcholine at 20% of maximum response
T1 construct: expressed in transfected cells; host or cells: CHO-K1
T1 sequence (P08173 1-479): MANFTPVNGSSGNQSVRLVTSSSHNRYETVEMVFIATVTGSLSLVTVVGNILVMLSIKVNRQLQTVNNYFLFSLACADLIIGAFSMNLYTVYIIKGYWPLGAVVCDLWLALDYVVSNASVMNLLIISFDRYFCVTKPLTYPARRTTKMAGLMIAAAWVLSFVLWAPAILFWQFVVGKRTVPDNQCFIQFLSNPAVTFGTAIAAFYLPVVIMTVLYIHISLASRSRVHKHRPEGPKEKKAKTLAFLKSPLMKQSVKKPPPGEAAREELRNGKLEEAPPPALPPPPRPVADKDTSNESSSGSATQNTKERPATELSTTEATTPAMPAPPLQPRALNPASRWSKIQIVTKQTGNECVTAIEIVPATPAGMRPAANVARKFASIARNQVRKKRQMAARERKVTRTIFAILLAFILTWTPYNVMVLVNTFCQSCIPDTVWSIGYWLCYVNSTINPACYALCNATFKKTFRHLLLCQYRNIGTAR
Protocol: In a typical experiment the M4 muscarinic acetylcholine receptor modulating activity of the compounds of the present invention was determined in accordance with the following experimental method. CHO-K1 cells stably transfected with human M4 receptor and chimeric G-protein Gαqi5 (Coward P, et al., Analytical Biochemistry, 270:242-248 (1999)) are thawed from liquid N2 storage, resuspended in growth medium, plated in black, clear bottom 384 well plates, and incubated 16-20 hours at 37° C., 5% CO2. On the day of assay, growth medium is removed, the cells are washed 2 times with wash buffer, and cells are incubated in dye loading buffer at 37° C., 5% CO2 for ˜1 hour. Following dye loading the cell plates are placed in a FLIPR Tetra instrument and while monitoring dye fluorescence (excitation […]), 10 uL of test substance at increasing concentrations is added, and fluorescence values are recorded for 4 min. Next, 10 uL of acetylcholine is added (final concentration calculated so as to achieve 20% of the maximum acetycholine response), and the fluorescence reading is continued for 3.5 min. In some cases, a third addition of acetylcholine (final concentration calculated to achieve 70% of the maximal acetylcholine response) is performed. The resulting dose response curves are fit to a 4 parameter logistic equation and the final result is determined as the inflection point (IP) of the curve
CHO-K1 cells stably transfected with human M4 receptor and chimeric G-protein Gαqi5 are thawed from liquid N2 storage, resuspended in growth medium, plated in black, clear bottom 384 well plates, and incubated 16-20 hours at 37° C., 5% CO2.
On the day of assay, growth medium is removed, the cells are washed 2 times with wash buffer, and cells are incubated in dye loading buffer at 37° C., 5% CO2 for ˜1 h. Following dye loading the cell plates are placed in a FLIPR Tetra instrument and while monitoring dye fluorescence ([…]), 10 uL of test substance at increasing concentrations is added, and fluorescence values are recorded for 4 min. Next, 10 uL of acetylcholine is added (final concentration calculated so as to achieve 20% of the maximum acetycholine response), and the fluorescence reading is continued for 3.5 min. In some cases, a third addition of acetylcholine (final concentration calculated to achieve 70% of the maximal acetylcholine response) is performed.

Compound	EC50 [nM]
Cc1c(N2CCC(OCC3(C)CC3)C3CC32)nc2c(c1C)C(=O)N(CCS(C)(=O)=O)C2 (single isomer, unassigned) [Example 17, 3,4-dimethyl-2-(5-((1-methylcyclopropyl)methoxy)-2-azabicyclo[4.1.0]heptan-2-yl)-6-(2-(methylsulfonyl)ethyl)-6,7-dihydro-5H-pyrrolo[3,4-b]pyridin-5-one]	103
CCc1cc2c(nc1N1CCC(OCC3(C)CC3)C3CC31)C(CO)N(C)C2=O (single isomer, unassigned) [Example 11, 3-ethyl-7-(hydroxymethyl)-6-methyl-2-(5-((1-methylcyclopropyl)methoxy)-2-azabicyclo[4.1.0]heptan-2-yl)-6,7-dihydro-5H-pyrrolo[3,4-b]pyridin-5-one]	742
Cc1c(N2CCC(OCC3(C)CC3)C3CC32)nc2c(c1C)C(=O)N(C)C2CO (single isomer, unassigned) [Example 8, 7-(hydroxymethyl)-3,4,6-trimethyl-2-(5-((1-methylcyclopropyl)methoxy)-2-azabicyclo[4.1.0]heptan-2-yl)-6,7-dihydro-5H-pyrrolo[3,4-b]pyridin-5-one]	3000
Cc1c(N2CCC(Oc3ccc4c(c3)COC4)C3CC32)nc2c(c1C)C(=O)N(C)C2 (stereo not shown) [Example 37, 2-(5-((1,3-dihydroisobenzofuran-5-yl)oxy)-2-azabicyclo[4.1.0]heptan-2-yl)-3,4,6-trimethyl-6,7-dihydro-5H-pyrrolo[3,4-b]pyridin-5-one]	143
Cc1cc2c(nc1N1CCC(Oc3ccc4c(c3)COC4)C3CC31)CNC2=O (stereo not shown) [Example 29, 2-(5-((1,3-dihydroisobenzofuran-5-yl)oxy)-2-azabicyclo[4.1.0]heptan-2-yl)-3-methyl-6,7-dihydro-5H-pyrrolo[3,4-b]pyridin-5-one]	43
Cc1c(N2CCC(OCC3(C)CC3)C3CC32)nc2c(c1C)C(=O)N(C)C2CO (single isomer, unassigned) [Example 5, 7-(hydroxymethyl)-3,4,6-trimethyl-2-(5-((1-methylcyclopropyl)methoxy)-2-azabicyclo[4.1.0]heptan-2-yl)-6,7-dihydro-5H-pyrrolo[3,4-b]pyridin-5-one]	117
CCc1cc2c(nc1N1CCC(OCC3(C)CC3)C3CC31)C(CO)N(C)C2=O (single isomer, unassigned) [Example 12, 3-ethyl-7-(hydroxymethyl)-6-methyl-2-(5-((1-methylcyclopropyl)methoxy)-2-azabicyclo[4.1.0]heptan-2-yl)-6,7-dihydro-5H-pyrrolo[3,4-b]pyridin-5-one]	506
Cc1c(N2CCC(OCC3(C)CC3)C3CC32)nc2c(c1C)C(=O)N1CCC(O)CC21 (single isomer, unassigned) [Example 24, 9-hydroxy-3,4-dimethyl-2-(5-((1-methylcyclopropyl)methoxy)-2-azabicyclo[4.1.0]heptan-2-yl)-8,9,10,10a-tetrahydropyrido[2,3-a]indolizin-5(7H)-one]	2440
Cc1c(N2CCC(OCC3(C)CC3)C3CC32)nc2c(c1C)C(=O)N1CCC(O)CC21 (single isomer, unassigned) [Example 21, 9-hydroxy-3,4-dimethyl-2-(5-((1-methylcyclopropyl)methoxy)-2-azabicyclo[4.1.0]heptan-2-yl)-8,9,10,10a-tetrahydropyrido[2,3-a]indolizin-5(7H)-one]	157
Cc1c(N2CCC(Oc3ccc4c(c3)COCC4)C3CC32)nc2c(c1C)C(=O)NC2 (stereo not shown) [Example 35, 2-(5-(isochroman-7-yloxy)-2-azabicyclo[4.1.0]heptan-2-yl)-3,4-dimethyl-6,7-dihydro-5H-pyrrolo[3,4-b]pyridin-5-one]	281
Cc1cc2c(nc1N1CCC(Oc3ccc4c(c3)COC4)C3CC31)CNC2=O (stereo not shown) [Example 30, 2-(5-((1,3-dihydroisobenzofuran-5-yl)oxy)-2-azabicyclo[4.1.0]heptan-2-yl)-3-methyl-6,7-dihydro-5H-pyrrolo[3,4-b]pyridin-5-one]	727
Cc1c(N2CCC(OCC3(C)CC3)C3CC32)nc2c(c1C)C(=O)N1CCC(C)(O)CC21 (stereo not shown) [Example 25, 9-hydroxy-3,4,9-trimethyl-2-(5-((1-methylcyclopropyl)methoxy)-2-azabicyclo[4.1.0]heptan-2-yl)-8,9,10,10a-tetrahydropyrido[2,3-a]indolizin-5(7H)-one]	195
Cc1cc2c(nc1N1CCC(Oc3ccc4c(c3)CCOC4)C3CC31)CNC2=O (stereo not shown) [Example 31, 2-(5-(isochroman-6-yloxy)-2-azabicyclo[4.1.0]heptan-2-yl)-3-methyl-6,7-dihydro-5H-pyrrolo[3,4-b]pyridin-5-one]	72
Cc1c(N2CCC(OCC3(C)CC3)C3CC32)nc2c(c1C)C(=O)N1CCC(O)CC21 (single isomer, unassigned) [Example 23, 9-hydroxy-3,4-dimethyl-2-(5-((1-methylcyclopropyl)methoxy)-2-azabicyclo[4.1.0]heptan-2-yl)-8,9,10,10a-tetrahydropyrido[2,3-a]indolizin-5(7H)-one]	2350
Cc1cc2c(nc1N1CCC(Oc3ccc4c(c3)COCC4)C3CC31)CNC2=O (stereo not shown) [Example 36, 2-(5-(isochroman-7-yloxy)-2-azabicyclo[4.1.0]heptan-2-yl)-3-methyl-6,7-dihydro-5H-pyrrolo[3,4-b]pyridin-5-one]	156
Cc1c(N2CCC(OCC3(C)CC3)C3CC32)nc2c(c1C)C(=O)NC2 (single isomer, unassigned) [Example 1, 3,4-dimethyl-2-(5-((1-methylcyclopropyl)methoxy)-2-azabicyclo[4.1.0]heptan-2-yl)-6,7-dihydro-5H-pyrrolo[3,4-b]pyridin-5-one]	39
Cc1c(N2CCC(OCC3(C)CC3)C3CC32)nc2c(c1C)C(=O)NC2 (single isomer, unassigned) [Example 2, 3,4-dimethyl-2-(5-((1-methylcyclopropyl)methoxy)-2-azabicyclo[4.1.0]heptan-2-yl)-6,7-dihydro-5H-pyrrolo[3,4-b]pyridin-5-one]	1320
Cc1cc2c(nc1N1CCC(OCC3(C)CC3)C3CC31)CNC2=O (single isomer, unassigned) [Example 3, 3-methyl-2-(5-((1-methylcyclopropyl)methoxy)-2-azabicyclo[4.1.0]heptan-2-yl)-6,7-dihydro-5H-pyrrolo[3,4-b]pyridin-5-one]	40
Cc1cc2c(nc1N1CCC(OCC3(C)CC3)C3CC31)CNC2=O (single isomer, unassigned) [Example 4, 3-methyl-2-(5-((1-methylcyclopropyl)methoxy)-2-azabicyclo[4.1.0]heptan-2-yl)-6,7-dihydro-5H-pyrrolo[3,4-b]pyridin-5-one]	1670
CCc1cc2c(nc1N1CCC(OCC3(C)CC3)C3CC31)C(CO)N(C)C2=O (single isomer, unassigned) [Example 9, 3-ethyl-7-(hydroxymethyl)-6-methyl-2-(5-((1-methylcyclopropyl)methoxy)-2-azabicyclo[4.1.0]heptan-2-yl)-6,7-dihydro-5H-pyrrolo[3,4-b]pyridin-5-one]	8090
Cc1c(N2CCC(Oc3ccc4c(c3)COC4)C3CC32)nc2c(c1C)C(=O)NC2 (stereo not shown) [Example 27, 2-(5-((1,3-dihydroisobenzofuran-5-yl)oxy)-2-azabicyclo[4.1.0]heptan-2-yl)-3,4-dimethyl-6,7-dihydro-5H-pyrrolo[3,4-b]pyridin-5-one]	166
Cc1cc2c(nc1N1CCC(Oc3ccc4c(c3)COC4)C3CC31)CNC2=O (stereo not shown) [Example 28, 2-(5-((1,3-dihydroisobenzofuran-5-yl)oxy)-2-azabicyclo[4.1.0]heptan-2-yl)-3-methyl-6,7-dihydro-5H-pyrrolo[3,4-b]pyridin-5-one]	76
